According to patent US20240382485A1, “METHODS OF TREATING ABNORMAL CELL GROWTH” (Verastem, Inc., priority 2021, published 2024):

Tests used:
Test in all cases: 2D proliferation assay (CellTiter-Glo) with synergy analysis
[1] = system: H358 human non-small cell lung cancer (NSCLC) cells; assay type: cell-based; conditions: for effect of doxycycline or minocycline on anti-tumor potency: 2D culture, 7 days, CellTiter-Glo; for synergy with antibiotics in the inhibition of tumor cell proliferation: with doxycycline or minocycline, H358, FIG. 3, Bliss, Loewe, HSA and ZIP analysis
Method: (§1) Anti-proliferative effects of an antibiotic agent such as doxycycline (e.g., 5 or 10 μM) or minocycline (e.g., 1.25 μM) in combination with VS-6766 (e.g., 40 nM) or defactinib (e.g., 1 μM) were tested in 2D culture in 3 different human tumor cell lines.
(§2) Human cancer cell lines were grown in 2D conditions. Briefly, cells were seeded in 100 μL of growth medium. After an overnight incubation (17-22 hours), cells were treated with VS-6766+/−minocycline or doxycycline for 7 days. Alternatively, cells were treated with defactinib+/−doxycycline for 7 days. Cell viability was measured using the cell viability CellTiter-Glo assay.
Raw data and metadata files were processed with a custom R-script for single agent and combination activity. Bliss, Loewe, Highest Single Agent (HSA) and ZIP synergy analysis were performed to generate a composite synergy score (e.g., see Malyutina A et al, “Drug combination sensitivity scoring facilitates the discovery of synergistic and efficacious drug combinations in cancer,” PLOS Computational Biology 15 (5): e1006752). Summary graphics and reports were saved for visualization and further analysis.
(§3) For example, consider that drug 1 at concentration x1 and drug 2 at concentration x2 were combined to produce the inhibition effect of yc, while their respective single drug effects were y1(x1) and y2(x2). The synergy score was calculated as the difference between yc and the expected effect ye if there is no synergy. Each synergy scoring takes a different model for ye: • 1. HSA: ye is the maximal single drug effect, defining
Dose-response matrices were used to assess anti-proliferative effects of the combination of VS-6766+/−minocycline or doxycycline, and the combination of defactinib+/−doxycycline. […] H358 human non-small cell lung cancer (NSCLC) cells were grown in 2D conditions. Cells were treated with VS-6766+/−minocycline or doxycycline for 7 days. Alternatively, cells were treated with defactinib+/−doxycycline for 7 days. Cell viability was measured using the cell viability CellTiter-Glo assay.
Synergy scores were calculated using a combination of 4 different methods (Bliss, Loewe, HSA and ZIP). Human cancer cell lines were run in a CTG proliferation assay. Raw data and metadata files were processed with a custom R-script for single agent and combination activity. Bliss, Loewe, Highest Single Agent (HSA) and ZIP synergy analysis were performed to generate a composite synergy score. The example used in this figure is VS-6766+doxycycline in H358 cells.
H358 human NSCLC cells were run in a CTG proliferation assay. Raw data and metadata files were processed with a custom R-script for single agent and combination activity. Bliss, Loewe, Highest Single Agent (HSA) and ZIP synergy analysis were performed to generate a composite synergy score. […]

H2122 NSCLC = assay type: cell-based, human; conditions: VS-6766+doxycycline, H2122, FIG. 4; Bliss, Loewe, HSA and ZIP analysis
Method: as §1, §2
(§4) Raw data and metadata files were processed with a custom R-script for single agent and combination activity. Bliss, Loewe, Highest Single Agent (HSA) and ZIP synergy analysis were performed to generate a composite synergy score (e.g., see Malyutina A et al, “Drug combination sensitivity scoring facilitates the discovery of synergistic and efficacious drug combinations in cancer,” PLOS Computational Biology 15 (5): e1006752). […]
as §3, with “Each synergy scoring takes a different model for ye: • 1. HSA: ye is the maximal single drug effect, defining” left out

TOV21G ovarian cancer = assay type: cell-based, human; conditions: VS-6766+doxycycline, FIG. 4, Bliss, Loewe, HSA and ZIP analysis
Method: as §1, §2, §4
as §3, with “Each synergy scoring takes a different model for ye: • 1. HSA: ye is the maximal single drug effect, defining” left out

Row | SMILES | effect of doxycycline or minocycline on anti-tumor potency [1] | synergy with antibiotics in the inhibition of tumor cell proliferation [1] | synergy in the inhibition of tumor cell proliferation (H2122 NSCLC) | synergy in the inhibition of tumor cell proliferation (TOV21G ovarian cancer)
1 | CNS(=O)(=O)Nc1nccc(Cc2c(C)c3ccc(Oc4ncccn4)cc3oc2=O)c1F [VS-6766] | increased anti-tumor potency | synergistic | synergistic effect | synergistic effect
2 | CNC(=O)c1ccc(Nc2ncc(C(F)(F)F)c(NCc3nccnc3N(C)S(C)(=O)=O)n2)cc1 [defactinib, reference compound] | increased anti-tumor potency | synergistic | – | –
